In US20260285853A1, “COMPOUNDS AND METHODS FOR MODULATING SPLICING” (REMIX THERAPEUTICS INC., priority 2023, published 2026):
Like-named read-outs stand apart in the source and are kept apart here.

Assays:
Type in all cases: cell-based
MYB mRNA [1] = experiment: Gene panel canonical junction qPCR assay, decrease in CJ mRNA, Table 3
Experimental: (§1) Compounds described herein were used to modulate RNA transcript abundance in cells. The expression of a target mRNA was measured by detecting the formation of an exon-exon junction in the canonical transcript (CJ). A compound mediated exon-inclusion event was detected by observing an increase in formation of a new junction with an alternative exon (AJ). Real-time qPCR assays were used to detect these splicing switches and interrogate the potency of various compounds towards different target genes. A high-throughput real time quantitative PCR (RT-qPCR) assay was developed to measure these two isoforms of the mRNA (CJ and AJ) for exemplary genes, such as HTT, SMN2, and MYB, together with a control housekeeping gene, GAPDH or GUSB or PPIA, used for normalization. Briefly, the A673 or K562 cell line was treated with various compounds described herein (e.g., compounds of Formula (I)). After treatment, the levels of the HTT, MYB, or SMN2 mRNA targets were determined from each sample of cell lysate by cDNA synthesis followed by qPCR.
(§2) The A673 cell line was cultured in DMEM with 10% FBS. Cells were diluted with full growth media and plated in a 96-well plate (15,000 cells in 100 ul media per well). The plate was incubated at 37° C. with 5% CO2 for 24 hours to allow cells to adhere. An 11-point 3-fold serial dilution of the compounds was made in DMSO then diluted in media in an intermediate plate. Compounds were transferred from the intermediate plate to the cell plate with the top dose at a final concentration of 10 uM in the well. Final DMSO concentration was kept at or below 0.25%. The cell plate was returned to the incubator at 37° C. with 5% CO2 for an additional 24 hours.
(§3) The K562 cell line was cultured in IMDM with 10% FBS. For K562, cells were diluted with full growth media and plated in either a 96-well plate (50,000 cells in 50 uL media per well) or a 384-well plate (8,000-40,000 cells in 45 uL media per well). An 11-point 3-fold serial dilution of the compounds were made in DMSO then diluted in media in an intermediate plate. Compound was transferred from the intermediate plate to the cell plate with the top dose at a final concentration of 10 uM in the well. Final DMSO concentration was kept at or below 0.25%. Final volume was 100 uL for 96-well plate and 50 uL for 384-well plate. The cell plate was then placed in an incubator at 37° C. with 5% CO2 for 24 hours.
(§4) The data analysis was performed by first determining the ΔCt vs the housekeeper gene. This ΔCt was then normalized against the DMSO control (ΔΔCt) and converted to RQ (relative quantification) using the 2^(−ΔΔCt) equation. The RQ were then converted to a percentage response by arbitrarily setting an assay window of 3.5 and 4.0 ΔCt for HTT-CJ and MYB-CJ respectively and an assay window of 9 and 3 ΔCt for HTT-AJ and MYB-AJ in 96 well format (50,000 K562 cells/well and 15,000 A673 cells per well) and an assay window of 3 and 4 ΔCt for HTT-CJ and MYB-CJ respectively and an assay window of 5 and 3 ΔCt for HTT-AJ and MYB-AJ respectively in 384 well format (8,000 K562 cells/well example). […] The percentage response was then fitted to the 4 parametric logistic equation to evaluate the concentration dependence of compound treatment. The increase in AJ mRNA is reported as AC50 (compound concentration having 50% response in AJ increase) while the decrease in CJ mRNA levels is reported as IC50 (compound concentration having 50% response in CJ decrease).
(§5) Additional studies were carried out for a larger panel of genes using the protocol provided above. The junction between flanking upstream and downstream exons was used to design canonical junction qPCR assays. At least one of the forward primer, reverse primer or the CY5-labeled 5′ nuclease probe (with 3′ quencher such as ZEN/Iowa Black FQ) was designed to overlap with the exon junction to capture the CJ mRNA transcript. […]

HTT mRNA [2] = experiment: as above
Experimental: as §1, §2, §3, §4, §5

HTT mRNA [3] = experiment: Splicing RT-qPCR assay (THP), Table 2A
MYB mRNA [4] = experiment: Splicing RT-qPCR assay (THP), Table 2A
[5] = tested on: SH-SY5Y (human neuroblastoma) cells; experiment: Cell viability, Cell Titer Glo 2.0 assay; settings: read-out: Viability SHSY5Y.3 GI50
Experimental: Compounds described herein were screened for toxicity in K562 (human chronic myelogenous leukemia) and SH-SY5Y (human neuroblastoma) cells using a Cell Titer Glo 2.0 assay.
• Promega CellTiter-Glo® 2.0 Cell Viability Assay (cat #G9241) • Corning 384-well TC-treated microplates (cat #3570)
Cells were plated at 500 cells/well (K562 cells) in 45 μL of IMDM supplemented with 10% FBS in a 384-well opaque plate. Wells containing only medium were used as a blank control. Test compounds (e.g., compounds of Formula (I) or (II) were first serially diluted in DMSO then diluted 1:100 with IMDM+10% FBS. The final concentration of DMSO was 0.1% in each well. The cells were incubated for 72 hours at 37° C. and 5% CO2 before assaying with Cell Titer Glo 2.0 reagent.

[6] = decrease in canonical junction (CJ) mRNA, gene panel qPCR, Table 3
[7] = Table 2A (THP), AJ mRNA increase, read-out: HTT AJ (increase in alternative junction mRNA, AC50)
[8] = Table 2A (THP), CJ mRNA decrease, read-out: HTT CJ (decrease in canonical junction mRNA, IC50)
[9] = Table 2A (THP), AJ mRNA increase, read-out: MYB AJ (increase in alternative junction mRNA, AC50)
[10] = Table 2A (THP), CJ mRNA decrease, read-out: MYB CJ (decrease in canonical junction mRNA, IC50)
[11] = decrease in CJ mRNA levels, canonical junction qPCR, gene panel
[12] = Table 2A, THP, HTT alternative junction (AJ) mRNA, read-out: HTT AJ (AC50, increase in alternative junction mRNA)
[13] = Table 2A, THP, HTT canonical junction (CJ) mRNA, read-out: HTT CJ (IC50, decrease in canonical junction mRNA)
[14] = Table 2A, THP, MYB alternative junction (AJ) mRNA, read-out: MYB AJ (AC50, increase in alternative junction mRNA)
[15] = Table 2A, THP, MYB canonical junction (CJ) mRNA, read-out: MYB CJ (IC50, decrease in canonical junction mRNA)

| SMILES | IC50 (MYB mRNA [1]; [6]) [nM] | IC50 (HTT mRNA [2]; [6]) [µM] | AC50 (HTT mRNA [3]; [7]) [µM] | IC50 (HTT mRNA [3]; [8]) [µM] | AC50 (MYB mRNA [4]; [9]) [nM] | IC50 (MYB mRNA [4]; [10]) [nM] | GI50 [5] [nM] | IC50 (MYB mRNA [1]; [11]) [nM] | IC50 (HTT mRNA [2]; [11]) [µM] | AC50 (HTT mRNA [3]; [12]) [µM] | IC50 (HTT mRNA [3]; [13]) [µM] | AC50 (MYB mRNA [4]; [14]) [nM] | IC50 (MYB mRNA [4]; [15]) [nM] |
| --- | --- | --- | --- | --- | --- | --- | --- | --- | --- | --- | --- | --- | --- |
| CCNC1CCN(c2cc(F)c(C(=O)Nc3cn4cc(CO)nc(C)c4n3)c3nn(C)cc23)CC1 [Compound 379, 4-[4-(ethylamino)-1-piperidyl]-6-fluoro-N-[6-(hydroxymethyl)-8-methyl-imidazo[1,2-a]pyrazin-2-yl]-2-methyl-indazole-7-carboxamide] | 1000 to 10000 | > 10 | > 10 | > 10 | 1000 to 10000 | 1000 to 10000 | > 10000 | – | – | – | – | – | – |
| Cc1cn2cc(NC(=O)c3ccc(N4CCC(NC5(CF)CC5)CC4)c4cn(C)nc34)cc(F)c2n1 [Compound 378, 4-[4-[[1-(fluoromethyl)cyclopropyl]amino]-1-piperidyl]-N-(8-fluoro-2-methyl-imidazo[1,2-a]pyridin-6-yl)-2-methyl-indazole-7-carboxamide] | < 100 | 1 to 10 | 1 to 10 | 1 to 10 | < 100 | < 100 | 100 to 1000 | – | – | – | – | – | – |
| COc1c(NC(=O)c2c(F)cc(N3CCC(NC4CC4)CC3)c3cn(C)nc23)cc2cn(C)nc2c1C [Compound 425, 4-[4-(cyclopropylamino)-1-piperidy1]-6-fluoro-N-(6-methoxy-2,7-dimethyl-indazol-5-y1)-2-methyl-indazole-7-carboxamide] | 100 to 1000 | 1 to 10 | 1 to 10 | 1 to 10 | 100 to 1000 | 100 to 1000 | 100 to 1000 | – | – | – | – | – | – |
| Cc1cn2cc(NC(=O)c3ccc(N4C[C@H](C)N[C@@H](C)C4)c4cn(C)nc34)cc(F)c2n1 [Compound 588, 4-[(3S, 5S)-3,5-dimethylpiperazin-1-yl]-N-(8-fluoro-2-methyl-imidazo[1,2-a]pyridin-6-yl)-2-methyl-indazole-7-carboxamide] | < 100 | 1 to 10 | 1 to 10 | 1 to 10 | < 100 | < 100 | 100 to 1000 | – | – | – | – | – | – |
| COc1cc2nn(C)cc2cc1NC(=O)c1ccc(N2CCNC(C)CC2)c2cn(C)nc12 (centres unmarked) [Compound 546] | 100 to 1000 | > 10 | > 10 | > 10 | 100 to 1000 | 100 to 1000 | 1000 to 10000 | – | – | – | – | – | – |
| CNC1CCN(c2ccc(C(=O)Nc3cn4cc(C)nc(C)c4c3F)c3nn(C)cc23)CC1 [Compound 581, N-(8-fluoro-1,3-dimethyl-pyrrolo[1,2-a]-pyrazin-7-yl)-2-methyl-4-[4-(methylamino)-1-piperidyl]indazole-7-carboxamide] | 1000 to 10000 | > 10 | > 10 | > 10 | 1000 to 10000 | 1000 to 10000 | 1000 to 10000 | – | – | – | – | – | – |
| COC(=O)NCc1cc(NC(=O)c2ccc(N3CCC(NC4CC4)CC3)c3cn(C)nc23)cc2cn(C)nc12 [Compound 814] | – | – | – | – | – | – | 1000 to 10000 | 100 to 1000 | > 10 | > 10 | > 10 | 1000 to 10000 | 100 to 1000 |
| CCNC1CCN(c2ccc(C(=O)Nc3cc4cn(C)nc4cc3OC)c3nc(OC)sc23)CC1 [Compound 669, 7-[4-(ethylamino)-1-piperidyl]-2-methoxy-N-(6-methoxy-2-methyl-indazol-5-yl)-1,3-benzo-thiazole-4-carboxamide] | – | – | – | – | – | – | 1000 to 10000 | 1000 to 10000 | 1 to 10 | 1 to 10 | 1 to 10 | 100 to 1000 | 1000 to 10000 |
| Cc1cn2cc(NC(=O)c3ccc(N4CC5(CCNCC5)C4)c4cn(C)nc34)nc2c(C)n1 [Compound 562] | > 10000 | > 10 | > 10 | > 10 | > 10000 | > 10000 | > 10000 | – | – | – | – | – | – |
| Cn1cc2c(N3CCC(NC4CC4)CC3)cc(F)c(C(=O)Nc3ccc4c(c3)COB4O)c2n1 [Compound 481, 4-(4-(cyclopropyl-amino)piperidin-1-yl)-6-fluoro-N-(1-hydroxy-1,3-dihydrobenzo[c][1,2]-oxaborol-5-y1)-2-methyl-2H-indazole-7-carboxamide 2,2,2-trifluoroacetate] | > 10000 | > 10 | > 10 | > 10 | 1000 to 10000 | > 10000 | 1000 to 10000 | – | – | – | – | – | – |
| COc1cc2nn(C)cc2cc1NC(=O)c1c(Cl)cc(N2CCC(NC3CC3)CC2)n2cc(C)nc12 [Compound 627, 7-chloro-5-(4-(cyclopropylamino)piperidin-1-yl)-N-(6-methoxy-2-methyl-2H-indazol-5-yl)-2-methylimidazo[1,2-a]pyridine-8-carboxamide 2,2,2-trifluoroacetate] | – | – | – | – | – | – | > 10000 | > 10000 | > 10 | > 10 | > 10 | > 10000 | > 10000 |
| Cc1cc2[nH]c(NC(=O)c3ccc(N4CCC(NC5CC5)CC4)c4cn(C)nc34)nc2c(C)n1 [Compound 582, 4-[4-(cyclopropylamino)-1-piperidyl]-N-(4,6-dimethyl-1H-imidazo[4,5-c]pyridin-2-yl)-2-methyl-indazole-7-carboxamide] | > 10000 | > 10 | > 10 | > 10 | > 10000 | > 10000 | 1000 to 10000 | – | – | – | – | – | – |
| Cc1cn2cc(NC(=O)c3ccc(N4CCC(N5CCNCC5)C4)c4cn(C)nc34)nc2c(C)n1 (centres unmarked) [Compound 528] | 100 to 1000 | 0.1 to 1 | 0.1 to 1 | 0.1 to 1 | 100 to 1000 | 100 to 1000 | 100 to 1000 | – | – | – | – | – | – |
| CCNC1CCN(c2ccc(C(=O)Nc3cc(Oc4cccc(C#N)c4)c4nc(C)cn4c3)c3nn(C)cc23)CC1 [Compound 326, N-[8-(3-cyano-phenoxy)-2-methylimidazo[1,2-a]pyridin-6-yl]-4-[4-(ethylamino)-1-piperidyl]-2-methyl-indazole-7-carboxamide] | 100 to 1000 | 1 to 10 | 1 to 10 | 1 to 10 | 100 to 1000 | 100 to 1000 | 1000 to 10000 | – | – | – | – | – | – |
